Results filed as inconclusive are left out.
System: nude mice, A549 intrarenal xenograft, tumor weight change
Test: NCI In Vivo Anticancer Drug Screen. Data for tumor model A549 Human Adenocarcinoma of Lung with characteristics of Type II Alveolar Epithelial cells (intrarenal inoculation) in NU/NU BALB/C (nude) mice
Conditions: endpoint: mean tumor weight change, schedule: Q04DX003 (ip), higher = larger tumour
Protocol: The antitumor activity of compounds was measured in mice bearing transplantable tumors. Survival or tumor size were measured and the results are expressed as the measurement made in the treated group (T) divided by the measurement made in the vehicle treated control group (C). The tumor model used in this assay is A549 Human Adenocarcinoma of Lung with characteristics of Type II Alveolar Epithelial cells (intrarenal inoculation) in NU/NU BALB/C (nude) mice

[1] = dose: 25.0 mg/kg/injection, vehicle: saline with Tween-80
[2] = dose: 50.0 mg/kg/injection, vehicle: saline with Tween-80
[3] = dose: 150.0 mg/kg/injection, vehicle: Klucel (hydroxypropylcellulose) (HPC)
[4] = dose: 600.0 mg/kg/injection, vehicle: Klucel (hydroxypropylcellulose) (HPC)
[5] = dose: 300.0 mg/kg/injection, vehicle: Klucel (hydroxypropylcellulose) (HPC)
[6] = dose: 100.0 mg/kg/injection, vehicle: saline with Tween-80
[7] = dose: 200.0 mg/kg/injection, vehicle: saline with Tween-80
[8] = dose: 25.0 mg/kg/injection, vehicle: water
[9] = dose: 50.0 mg/kg/injection, vehicle: water

Compound: CC1Oc2cc3c(-c4c(O)cc(O)c5c(O)c6c(cc45)OC(C)C(C)C6=O)c(O)cc(O)c3c(O)c2C(=O)C1C (centres undefined)
- T/C (dose: 0.19 mg/kg/injection, vehicle: suspension in saline): 60 % of control
- T/C (dose: 0.38 mg/kg/injection, vehicle: suspension in saline): 51 % of control
- T/C (dose: 0.75 mg/kg/injection, vehicle: suspension in saline): 83 % of control
- T/C (dose: 3.0 mg/kg/injection, vehicle: suspension in saline): 63 % of control
- T/C (dose: 6.0 mg/kg/injection, vehicle: suspension in saline): 77 % of control

Compound: CC(=O)NO
- T/C (dose: 150.0 mg/kg/injection, vehicle: water): 83 % of control
- T/C (dose: 300.0 mg/kg/injection, vehicle: water): 82 % of control
- T/C (dose: 600.0 mg/kg/injection, vehicle: water): 109 % of control
- T/C (dose: 1200.0 mg/kg/injection, vehicle: water): 66 % of control

Compound: O=[N+]([O-])c1ccc(N(CCO)CCO)c2c1no[n+]2[O-]
- T/C (dose: 12.5 mg/kg/injection, vehicle: saline with Tween-80): 53 % of control
- T/C [1]: 83 % of control
- T/C [2]: 34 % of control

Compound: CN(C)/N=N/c1nc[nH]c1C(N)=O
- T/C (dose: 75.0 mg/kg/injection, vehicle: suspension in saline): 11 % of control
- T/C (dose: 150.0 mg/kg/injection, vehicle: suspension in saline): 48 % of control
- T/C (dose: 225.0 mg/kg/injection, vehicle: suspension in saline): 8 % of control

Compound: NC(=S=O)C(N)=S=O
- T/C (dose: 125.0 mg/kg/injection, vehicle: saline with Tween-80): 97 % of control
- T/C (dose: 250.0 mg/kg/injection, vehicle: saline with Tween-80): 98 % of control
- T/C (dose: 500.0 mg/kg/injection, vehicle: saline with Tween-80): 100 % of control

Compound: CC(C)(C)NC(C1=CC(C)(C)c2ccccc2C1=O)c1ccccc1 (centres undefined)
- T/C (dose: 100.0 mg/kg/injection, vehicle: Klucel (hydroxypropylcellulose) (HPC)): 107 % of control
- T/C (dose: 200.0 mg/kg/injection, vehicle: Klucel (hydroxypropylcellulose) (HPC)): 65 % of control

Compound: CCOC1NC(=O)Oc2ccccc21 (centres undefined)
- T/C [3]: 43 % of control
- T/C [4]: 54 % of control

Compound: CC(=O)NCCSSCCCCS(=O)O
- T/C (dose: 75.0 mg/kg/injection, vehicle: saline): 111 % of control
- T/C (dose: 150.0 mg/kg/injection, vehicle: saline): 60 % of control
- T/C (dose: 300.0 mg/kg/injection, vehicle: saline): 39 % of control
- T/C (dose: 600.0 mg/kg/injection, vehicle: saline): 70 % of control

Compound: Cc1cc(NC(=S)SCc2ccc3c(c2)OCO3)ccc1Cl
- T/C [5]: 61 % of control
- T/C [4]: 73 % of control

Compound: Cc1ccccc1N=C(c1ccccc1)C1C(=O)c2ccccc2C1=O
- T/C (dose: 150.0 mg/kg/injection, vehicle: other): 101 % of control
- T/C (dose: 300.0 mg/kg/injection, vehicle: other): 75 % of control
- T/C (dose: 600.0 mg/kg/injection, vehicle: other): 104 % of control
- T/C (dose: 1200.0 mg/kg/injection, vehicle: other): 121 % of control

Compound: O=C(O)c1cc(C(=O)O)c(C(=O)O)cc1C(=O)O.[NH2-].[NH2-].[NH2-].[NH2-].[Pt+2].[Pt+2]
- T/C (dose: 12.5 mg/kg/injection, vehicle: water): 102 % of control

Compound: ClC1(Cl)Cc2ccccc21
- T/C [2]: 119 % of control
- T/C [6]: 57 % of control
- T/C [7]: 119 % of control

Compound: CC(O)C1(O)C(O)CC(OC2c3cc4c(c(O)c3[C@@H]3C[C@@]2(C)OC32C=c3cc[nH]c3=N2)C(=O)c2cccc(O)c2C4=O)OC1C (some centres undefined)
- T/C [1]: 65 % of control
- T/C [2]: 55 % of control

Compound: NC(Cc1ccccc1)C(=O)OCN1C(=O)C2C3C=CC(C2C1=O)C1C2C(=O)N(COC(=O)C(N)Cc4ccccc4)C(=O)C2C31 (centres undefined)
- T/C (dose: 25.0 mg/kg/injection, vehicle: other): 82 % of control
- T/C (dose: 50.0 mg/kg/injection, vehicle: other): 73 % of control
- T/C (dose: 100.0 mg/kg/injection, vehicle: other): 48 % of control
- T/C (dose: 200.0 mg/kg/injection, vehicle: other): 35 % of control

Compound: COc1cc(C)c(C2NC(=O)c3ccccc3N2)cc1C (centres undefined)
- T/C (dose: 75.0 mg/kg/injection, vehicle: Klucel (hydroxypropylcellulose) (HPC)): 5 % of control
- T/C (dose: 129.6 mg/kg/injection, vehicle: Klucel (hydroxypropylcellulose) (HPC)): 161 % of control
- T/C [3]: 47 % of control
- T/C [5]: 6 % of control
- T/C (dose: 360.0 mg/kg/injection, vehicle: Klucel (hydroxypropylcellulose) (HPC)): 112 % of control
- T/C (dose: 1000.0 mg/kg/injection, vehicle: Klucel (hydroxypropylcellulose) (HPC)): 65 % of control

Compound: CN=C(NC)c1ccc(NC(=O)/C=C\c2ccc(/C=C/C(=O)Nc3ccc(C(=NC)NC)cc3)cc2)cc1
- T/C (dose: 3.13 mg/kg/injection, vehicle: Klucel (hydroxypropylcellulose) (HPC)): 47 % of control
- T/C (dose: 6.25 mg/kg/injection, vehicle: Klucel (hydroxypropylcellulose) (HPC)): 67 % of control
- T/C (dose: 12.5 mg/kg/injection, vehicle: Klucel (hydroxypropylcellulose) (HPC)): 47 % of control

Compound: CC[C@]1(O)C[C@H]2CN(CCc3c([nH]c4ccccc34)[C@@](C(=O)OC)(c3cc4c(cc3OC)N(C)[C@H]3[C@@](O)(C(=O)OC)[C@H](OC(C)=O)[C@]5(CC)C=CCN6CC[C@]43[C@@H]65)C2)C1
- T/C (dose: 0.67 mg/kg/injection, vehicle: Klucel (hydroxypropylcellulose) (HPC)): -2 % of control
- T/C (dose: 1.0 mg/kg/injection, vehicle: Klucel (hydroxypropylcellulose) (HPC)): -49 % of control

Compound: O=C1C2CC(Cl)C(SSC3CC4C(=O)N(SC(Cl)(Cl)C(Cl)Cl)C(=O)C4CC3Cl)CC2C(=O)N1SC(Cl)(Cl)C(Cl)Cl (centres undefined)
- T/C [1]: 123 % of control
- T/C [2]: 78 % of control
- T/C [6]: 98 % of control
- T/C [7]: 73 % of control

Compound: CCC1(O)C(=O)OCc2c1cc1n(c2=O)Cc2cc3cc4c(cc3nc2-1)OCO4 (centres undefined)
- T/C (dose: 4.0 mg/kg/injection, vehicle: saline with Tween-80): 6 % of control

Compound: CC1(O)C=CC(=O)C=C1
- T/C [8]: 121 % of control
- T/C [9]: 100 % of control

Compound: Cc1ccc(C(=Nc2ccccc2)N=P(c2ccccc2)(c2ccccc2)c2ccccc2)cc1
- T/C [2]: 90 % of control
- T/C [7]: 82 % of control

Compound: NC(=O)c1cc(Cl)nc2nc(Cl)nc(N)c12
- T/C (dose: 150.0 mg/kg/injection, vehicle: saline with Tween-80): 111 % of control
- T/C (dose: 300.0 mg/kg/injection, vehicle: saline with Tween-80): 89 % of control
- T/C (dose: 600.0 mg/kg/injection, vehicle: saline with Tween-80): 55 % of control
- T/C (dose: 1200.0 mg/kg/injection, vehicle: saline with Tween-80): 93 % of control

Compound: Cn1c2ccccc2c2ccc3c(c21)C(=O)C=CC3=O
- T/C [1]: 61 % of control
- T/C [2]: 26 % of control
- T/C [6]: 38 % of control
- T/C [7]: 35 % of control

Compound: O=c1[nH]cc(F)c(=O)[nH]1
- T/C (dose: 25.0 mg/kg/injection, vehicle: saline): 207 % of control
- T/C (dose: 100.0 mg/kg/injection, vehicle: saline): 28 % of control

Compound: Nc1ncnc2c1nc(Cl)n2C1OC2COP(=O)(O)OC2C1O (centres undefined)
- T/C [8]: 198 % of control
- T/C [9]: 85 % of control

Source: PubChem BioAssay AID278 (DTP/NCI, 2004)
